The values that follow come from patent US20220098257A1, “Methods of Treating Epilepsy via Phosphodiesterase 4 (PDE4) Inhibition” (Path Therapeutics, Inc., priority 2019, published 2022).

The test system of data set [1] is scn1lab mutant zebrafish. It is filed as in vivo. The settings on record: for OCR response / bioenergetics relative to WT baseline: 40 μM dose of PDE4 inhibitor. The protocol: The scn1lab mutant zebrafish employed in this Experimental section are homozygous, loss-of-function mutants. To measure bioenergetics in whole, living zebrafish (further details of which may be found in Ibhazehiebo et al. (2018) Brain 141(3):744-761), zebrafish larvae (5 days post-fertilization, dpf) were seeded into 24-well islet capture microplates (Agilent) and pre-exposed to vehicle or drug for 20 minutes prior to the start of the assay. Oxygen consumption rates (OCR) were measured using the Seahorse Bioanalyzer (Agilent).
In a similar assay to that described above, scn1lab mutants are exposed to a 40 μM dose of a range of PDE4 inhibitors. […]

Data set [2] concerns scn1lab mutant zebrafish. Put plainly: Electrophysiological recording of seizure-like hyperexcitability in the tectum opticum of scn1lab zebrafish. It is filed as in vivo. The protocol: Briefly, 6 dpf zebrafish (WT and scn1lab mutants) were paralyzed (α-bungarotoxin, 1 mg/ml, Tocris) and embedded in agarose. The dorsal side of the zebrafish was exposed to the agarose gel surface and a glass microelectrode was placed into the tectum opticum of zebrafish and electrophysiological measurements were recorded. […] Care was taken not to disrupt the pipette or move the fish in any manner. Seizure-like activity was defined by high-frequency, large amplitude spikes, as defined elsewhere (Baraban et al, 2013). Both itcal (>1000 ms in duration) and inter-ictal (<300 ms in duration) activity was observed upon zooming in on a section of the EEG trace (data not shown), consistent with epileptiform events.

Data set [3] has as its system mouse Scn1a mutant brain ex vivo slices. Kind of data set: Extracellular field recordings in mouse Scn1a mutant brain ex vivo slices. The conditions noted are these: AN2728, 40 μM; adult Scn1a heterozygous mutant brain slices; n=3. Here is the method: The mouse Scn1a mutants employed in this Experimental section were heterozygous mutants (Scn1a−/− mice die early postnatally). […] In this assay, adult Scn1a mutant brains were rapidly removed and sectioned for electrophysiological assays. Here, extracellular field recordings were conducted to measure baseline electrophysiological activity, prior to the addition of PDE4 inhibitor (AN2728, 40 μM). A decrease in hyperexcitable amplitude and frequency was measured in the presence of AN2728.

The subject of data set [4] is 6 Hz-induced psychomotor seizures. Kind of data set: 6 Hz psychomotor seizure induction mouse model. It is filed as in vivo. The text has this:
To examine the acute effect of PDE4 inhibition on seizures, the 6 Hz psychomotor model that represents therapy-resistant limbic seizures was employed (White et al., 1995; Barton et al., 2001). Briefly, compounds were screened for their ability to block psychomotor seizures induced by a low-frequency (6 Hz), long-duration (3 sec) stimulus delivered through corneal electrodes. These seizures are believed to model partial seizures observed in humans. […]

Another data set deals with Scn1a mutant mice. Put plainly: Hyperthermia-induced seizures in Scn1a mutant mice. It is filed as in vivo, mouse. The settings on record: for block of seizures (partial = seizure temperature changed; full = no seizure elicited): FIG. 15 comparison, pre-treatment with PDE4 inhibitor. Here is the method:
As shown in FIG. 13 (panels A and B), an example PDE4 inhibitor (AN2728) protects against hyperthermia-induced seizures in Scn1a mutant mice. In this model, a Scn1a mutant animal's core temperature is raised using an external heat source and consequently, brain temperature is raised and this leads to hyperthermic seizures. These hyperthermic seizures are thought to represent febrile seizures. In the Scn1a mutants, seizures begin around 41° C., whereas in the WT seizures are rarely detected even at temperatures as high as 43° C. […] FIG. 12B is the same data graphed differently.
A partial block in seizures is noted when the temperature required to induce a seizure is statistically different than wildtype and a full block in seizures occurs when no seizure is elicited following pre-treatment with the PDE4 inhibitor.

A further data set deals with kcna1 mutant zebrafish. Kind of data set: Bioenergetics in kcna1 mutant zebrafish (model of generalizable epilepsy and SUDEP). It is filed as in vivo.
The subject of data set [5] is Dravet syndrome (DS) patients. The settings on record: cited from earlier work.
The mark [6] stands for this setting: after treatment with AN2728, n=6-10.

Where two headings read alike, the source gives them in different places.

`N#Cc1ccc(Oc2ccc3c(c2)COB3O)cc1` [AN2728, 5-(4-cyanophenoxy)-2,3-dihydro-1-hydroxy-2,1-benzoxaborole]: the “OCR response relative to WT” value is listed as “ineffective” in the data set on scn1lab mutant zebrafish [1] (AN2728 1 nM-100 nM doses, 5 dpf larvae); “fully restoring OCR response to WT levels” in the data set with scn1lab mutant zebrafish [1] (AN2728 1 μM, 5 dpf larvae); “fully restoring OCR response to WT levels” with scn1lab mutant zebrafish [1] (AN2728 10 μM, 5 dpf larvae). The “toxicity (drop of OCR response below mutant levels)” value in the data set on scn1lab mutant zebrafish [1] (AN2728 100 μM, 5 dpf larvae) was “toxic”. The “restoration of bioenergetics (OCR)” value in the data set with scn1lab mutant zebrafish [1] (AN2728 dose series 1 nM-100 μM, 5 dpf larvae, 20 min pre-exposure) is reported as “dose-dependent restoration of bioenergetics”. In addition, in the data set on scn1lab mutant zebrafish [2] (AN2728, 40 μM, 6 dpf scn1lab mutants), the seizure-like activity entry is listed as “blocked this seizure-like activity to baseline levels”. Besides, in the data set on scn1lab mutant zebrafish [2] (setting [6]), the peak amplitude entry is “decrease”. The seizure frequency result in the data set on scn1lab mutant zebrafish [2] (setting [6]) was “decrease”. The hyperexcitable amplitude result in data set [3] was “decrease”. Besides, the hyperexcitable frequency result in data set [3] is reported as “decrease”. Moreover, the “animals that responded (protected) in 6 Hz test” value in data set [4] (dosed 30 min prior to the 6 Hz test, highest dose 300 mg/kg) is recorded as 1; in data set [4] (treated two hours prior to the 6 Hz test) it was “three out of four”. The “animals that do not ever experience a seizure” value in the data set on Scn1a mutant mice (AN2728 treatment) was 3. Further, the “protection against hyperthermia-induced seizures” value with Scn1a mutant mice (AN2728 treatment) is reported as “protected against hyperthermia-induced seizures”. Besides, in the data set on Scn1a mutant mice (AN2728 treatment, untreated mutants seize around 41° C.), the “temperature at which the remaining animals experience a seizure” value was about 42 °C. In addition, the “block of seizures (partial = seizure temperature changed; full = no seizure elicited)” value in the data set on Scn1a mutant mice is “partially or fully block seizures”.
Turning to `O=C(Nc1c(Cl)cncc1Cl)c1ccc(OC(F)F)c(OCC2CC2)c1` [Roflumilast, roflumilast], the “OCR response / bioenergetics relative to WT baseline” value in the data set with scn1lab mutant zebrafish [1] was “restored OCR response to baseline levels”. Besides, the “bioenergetics relative to wild-type baseline” value in the data set on kcna1 mutant zebrafish is “restore bioenergetics in a kcna1 mutant zebrafish back to baseline levels”. In the data set with Scn1a mutant mice, the “block of seizures (partial = seizure temperature changed; full = no seizure elicited)” value is “partially or fully block seizures”.
Consider `CCOc1ccc(/C=C2\NCCc3cc(OCC)c(OCC)cc32)cc1OCC` [Drotaverine, drotaverine], for which the “OCR response / bioenergetics relative to WT baseline” value with scn1lab mutant zebrafish [1] was “effective in restoring bioenergetics to baseline levels”.
Consider `COc1ccc([C@]2(C#N)CC[C@@H](C(=O)O)CC2)cc1OC1CCCC1` [Cilomilast, cilomilast], for which the “OCR response / bioenergetics relative to WT baseline” value in the data set with scn1lab mutant zebrafish [1] is on record as “restored OCR response to baseline levels”.
For `COc1ccc(C2CNC(=O)C2)cc1OC1CCCC1` (stereo not drawn) [Rolipram, rolipram], the “block of seizures (partial = seizure temperature changed; full = no seizure elicited)” value with Scn1a mutant mice was “partially or fully block seizures”. In addition, in the data set with Scn1a mutant mice (rolipram, 3 mg/kg), the “protection against hyperthermia-induced seizures” value is reported as “neuroprotective against hyperthermia-induced seizures” and the “temperature required to induce a seizure” value was “raising”. Also, the “severity of the seizure, Racine scale level” value with Scn1a mutant mice (rolipram, 3 mg/kg, from mostly 4-5 level without treatment) is on record as 3.
For the molecule `Nc1nc(N)nc(-c2cc(Cl)ccc2Cl)n1` [Irsogladine, irsogladine], the “OCR response / bioenergetics relative to WT baseline” value with scn1lab mutant zebrafish [1] is “effective in restoring bioenergetics to baseline levels”.
In the case of `Cn1c(=O)c2[nH]cnc2n(C)c1=O` [Theophylline, theophylline], the “OCR response / bioenergetics relative to WT baseline” value in the data set on scn1lab mutant zebrafish [1] is recorded as “effective in restoring bioenergetics to baseline levels”. Besides, the “bioenergetics relative to wild-type baseline” value in the data set on kcna1 mutant zebrafish is “restore bioenergetics in a kcna1 mutant zebrafish back to baseline levels”.
As for `C=C(C)[C@@H]1CCC(C)=C[C@H]1c1c(O)cc(CCCCC)cc1O` [CBD, cannabidiol], in data set [5], the “patients achieving full seizure freedom” value is under 5% and the “patients with reduced seizure frequency” value is listed as 43%.
